Values of other authors as cited in patent US20110274751A1 (Sanovel Ilac Sanayi Ve Ticaret Anonim Sirketi, priority 2010, published 2011).
Structures can show the parent of a compound that is named as a salt.

Key:
[1] = in vivo

COc1ccc(CN2CCNCC2)c(OC)c1OC [Trimetazidine, 1-(2,3,4-trimethoxybenzyl)piperazine]
solubility: considerably high solubility
half-life [1]: 6 h

COc1ccc(CN2CCNCC2)c(OC)c1OC [Trimetazidine dihydrochloride]
solubility in water (water): highly-soluble
